The values below come from PMC7059793, “Novel Chemical Scaffolds to Inhibit the Neutral Amino Acid Transporter B^0AT1 (SLC6A19), a Potential Target to Treat Metabolic Diseases” (Frontiers in Pharmacology, 2020).

One assay concerns the target T1, B^0AT1 (Homo sapiens, UniProt Q695T7).
T1 construct: expressed in transfected cells
T1 sequence (Q695T7 1-634): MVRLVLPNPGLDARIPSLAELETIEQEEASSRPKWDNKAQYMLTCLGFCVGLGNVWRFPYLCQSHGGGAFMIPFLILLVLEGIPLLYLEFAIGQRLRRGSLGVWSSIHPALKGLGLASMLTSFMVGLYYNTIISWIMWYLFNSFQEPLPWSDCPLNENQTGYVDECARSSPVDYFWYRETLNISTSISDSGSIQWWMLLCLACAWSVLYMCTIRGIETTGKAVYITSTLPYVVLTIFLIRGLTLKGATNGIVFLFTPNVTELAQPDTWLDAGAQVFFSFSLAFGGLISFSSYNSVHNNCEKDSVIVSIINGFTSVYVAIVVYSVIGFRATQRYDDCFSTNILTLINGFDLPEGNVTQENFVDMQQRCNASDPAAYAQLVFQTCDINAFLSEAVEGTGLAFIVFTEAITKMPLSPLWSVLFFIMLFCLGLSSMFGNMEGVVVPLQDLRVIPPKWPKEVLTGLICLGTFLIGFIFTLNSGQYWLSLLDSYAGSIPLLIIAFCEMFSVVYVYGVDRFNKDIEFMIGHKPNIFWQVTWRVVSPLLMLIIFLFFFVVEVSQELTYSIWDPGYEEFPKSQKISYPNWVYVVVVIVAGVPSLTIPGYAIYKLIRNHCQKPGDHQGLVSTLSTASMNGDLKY
T1 sequence (Q9HBJ8 15-222 partner): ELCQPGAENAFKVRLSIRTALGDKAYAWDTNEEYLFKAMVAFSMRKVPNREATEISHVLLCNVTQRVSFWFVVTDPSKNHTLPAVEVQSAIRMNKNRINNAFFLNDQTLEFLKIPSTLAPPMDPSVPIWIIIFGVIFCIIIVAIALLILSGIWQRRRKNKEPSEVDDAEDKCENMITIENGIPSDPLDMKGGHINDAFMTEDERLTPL
Put plainly: Mode of inhibition: leucine uptake kinetics at three inhibitor concentrations, FLIPR, Eadie-Hofstee. To be noted: CHO-BC cells. The assay is classed as cell-based. The source says: To understand the mode of inhibition, we determined KM-values at three different inhibitor concentrations using FLIPR assay and plotted Eadie-Hofstee transformed data ( Figure 5 ). Fully parallel lines indicate a change of […], while fully converging lines (at x = 0; y = Vmax) indicate a change of KM only with increasing concentrations of the inhibitor. […] To rationalize the mode of inhibition, we performed docking studies using a homology model of B^0AT1 based on the outside-open conformation of LeuT. […] In the homology structure the two Na^+ are shown as yellow spheres. Both, LeuT Na^+-site 1 and -site 2 are conserved in B^0AT1, but only one site is used functionally. This is most likely site 1 as it binds the α-carboxyl-group of the amino acids ([O’mara et al., 2006]). […] Many transport inhibitors are substrate analogues that are too large to fit into the occluded substrate binding cavity, thereby blocking the conformational change required for transport ([Broer, 2018]). […] Instead the compounds preferred binding to different sites in the vestibule, including the proposed Substrate-binding site 2 ([Shi et al., 2008]), which was the preferred docking site for compound E4. In the outside open conformation, the volume of the binding site increases, encompassing an orthostatic binding site ( Figure 5H , orange), occupied by E4, E18, or the substrate and an allosteric binding site ( Figure 5H , blue), which is compatible with substrate binding.
Figure 5 Mechanistic aspects of B^0AT1 inhibitors. Inhibition of B^0AT1 by compounds E4 (A), E18 (B) and CB3 (C) (n = 3, e = 3) was determined by FLIPR assay in CHO-BC cells. To determine the mode of inhibition, the kinetic properties of leucine uptake were determined in the presence of three different inhibitor concentrations. Docking poses of compounds E4 (D), E18 (E) and CB3 (F) are shown for comparison. Amino acid side-chains of the binding pocket are shown in green, cosubstrate Na^+ 1 is shown in yellow (foreground), Na^+ 2 is only partially visible in the background and may not exist in B^0AT1. […]

A further assay has as its target T2, ASCT2 (SLC1A5) (Homo sapiens, UniProt Q15758).
T2 construct: endogenous in cells; host or cells: 143B TK- cells (human osteosarcoma)
T2 sequence (Q15758 1-541): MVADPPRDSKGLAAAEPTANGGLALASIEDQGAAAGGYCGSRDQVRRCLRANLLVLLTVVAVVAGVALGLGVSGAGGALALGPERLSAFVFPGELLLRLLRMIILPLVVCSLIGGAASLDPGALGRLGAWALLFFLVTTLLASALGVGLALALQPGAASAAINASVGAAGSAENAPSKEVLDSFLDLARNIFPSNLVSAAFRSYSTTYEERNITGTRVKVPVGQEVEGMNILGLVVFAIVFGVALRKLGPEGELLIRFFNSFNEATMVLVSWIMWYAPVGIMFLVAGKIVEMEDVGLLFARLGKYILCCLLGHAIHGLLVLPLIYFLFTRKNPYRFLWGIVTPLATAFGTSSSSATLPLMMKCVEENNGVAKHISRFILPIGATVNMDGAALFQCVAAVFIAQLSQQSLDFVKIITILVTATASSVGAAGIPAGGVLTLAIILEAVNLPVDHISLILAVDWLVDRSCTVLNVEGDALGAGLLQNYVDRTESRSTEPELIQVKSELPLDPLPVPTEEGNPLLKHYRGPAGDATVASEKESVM
Put plainly: Na+-dependent [14C]glutamine uptake in 143B cells. To be noted: inhibitor at 10 μM and 50 μM, 100 μM [14C]glutamine. The assay is classed as cell-based. Here is the method: CHO-BC cells with passage numbers from 3 to 10 were used in radio-labelled uptake assays. Before the assay, the cells were seeded out in 35 mm dishes (Corning) and maintained for 48–72 h until reaching 80–90% confluence. To initiate transport, the culture medium was removed and the cells washed three times with HBSS + G. Subsequently, cells were incubated with HBSS + G, radiolabelled substrates (150 μM L-[U-^14C]leucine or 150 μM L-[U-^14C]isoleucine) and inhibitors as indicated in the figures or table in a 37°C water bath for 6 min. To terminate transport, cells were washed three times with ice-cold HBSS pH 7.5. For measuring sodium-independent uptake, NaCl in Hank’s buffer was replaced by NMDG-Cl. Cells were then harvested by homogenizing with 500 µl of 0.1 M HCl. An aliquot of 400 µl was used for scintillation counting and the remainder for protein quantification. To investigate inhibition of ASCT2, uptake of 100 μM [^14C]glutamine was measured in 143B cells in the absence and presence of inhibitor (at 10 μM and 50 μM). To measure inhibition of LAT1, uptake of [^14C]leucine was measured in HBSS + G in which NaCl was replaced by NMDG-Cl in 143B cells in the absence and presence of inhibitor (at 10 μM and 50 μM).
To investigate the specificity of the compounds further, we tested them in human 143B osteosarcoma cells, which we have extensively characterised previously and used for pharmacological analysis ([Broer et al., 2018]). Na^+-dependent glutamine transport in 143B cells is largely mediated by ASCT2 (SLC1A5). Na^+-independent transport of leucine, by contrast, is mediated entirely by LAT1.

`Cc1cc(C(=O)Nc2ccc(Cl)cc2C(F)(F)F)no1` [CB3]: at B^0AT1, the Mode of inhibition result was “more mixed model”. The “Inhibition of Na+-dependent glutamine uptake (ASCT2)” value at ASCT2 (SLC1A5) is given as “failed to inhibit”.
The like results for `Cc1cc(OCC(=O)NC(C)C)cc(C)c1Cl` [Compound E4] were, in that order, “largely competitive mode of inhibition” and “failed to inhibit”.
For the compound `COc1ccccc1Nc1nc2ccccc2s1` [Compound E18], the Mode of inhibition result on B^0AT1 was “largely competitive mode of inhibition”. The “Inhibition of Na+-dependent glutamine uptake (ASCT2)” value at ASCT2 (SLC1A5) was “failed to inhibit”.
